Source: ChEMBL document CHEMBL1201862, “PubChem BioAssay data set” (2004)
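In this assay, cells in 96-well plates receive the compound at five concentrations for 48 hours. Endpoints are linearly interpolated between the surrounding concentrations. GI50 marks 50% less growth.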 Active and inactive are the calls of the source. Cut-off read from the data, not from the text of the source: active = GI50 up to about 1.1 µM and inactive = higher.

Tests used:
Assay in all cases: inhibition of tumour cell growth, NCI panel, 48 h
786-0 = system: 786-0
A498 = system: A498
CAKI-1 = system: CAKI-1
DMS-273 = system: DMS-273
HCC 2998 = system: HCC 2998
HL-60 = system: HL-60
HOP-62 = system: HOP-62
HOP-92 = system: HOP-92
HT-29 = system: HT-29
KM12 = system: KM12
LOX IMVI = system: LOX IMVI
M14 = system: M14
MOLT-4 = system: MOLT-4
NCI-H226 = system: NCI-H226
OVCAR-3 = system: OVCAR-3
OVCAR-5 = system: OVCAR-5
SF-539 = system: SF-539
SNB-75 = system: SNB-75
U-251 = system: U-251
UACC-257 = system: UACC-257

Measured: GI50

CNC1=C(C)C(=O)C(C)=C(C(C)(C)CC(=O)n2cc(F)c(=O)[nH]c2=O)C1=O
inactive: 786-0 22.6 µM | A498 > 23.9 µM | CAKI-1 22.8 µM | DMS-273 23.1 µM | HCC 2998 1.16 µM | HL-60 17.8 µM | HOP-62 3.97 µM | HOP-92 > 100 µM | HT-29 12.5 µM | KM12 14.5 µM | LOX IMVI 71 µM | M14 48.1 µM | MOLT-4 26.7 µM | NCI-H226 43.4 µM | OVCAR-3 38.5 µM | OVCAR-5 > 100 µM | SF-539 3.97 µM | SNB-75 69.3 µM | U-251 > 75.9 µM | UACC-257 68.2 µM

C=C1CCC2C(C)(CO)C(O)CCC2(C)C1CC(O)C1=CCOC1=O (stereo not given)
inactive: 786-0 23.1 µM | A498 > 100 µM | CAKI-1 78 µM | DMS-273 > 100 µM | HCC 2998 17.7 µM | HL-60 26.9 µM | HOP-62 > 100 µM | HOP-92 > 100 µM | HT-29 35.7 µM | KM12 36.1 µM | LOX IMVI 33.5 µM | M14 47.3 µM | MOLT-4 > 100 µM | NCI-H226 45.2 µM | OVCAR-3 26.5 µM | OVCAR-5 > 100 µM | SF-539 24.3 µM | SNB-75 46.9 µM | U-251 17.3 µM | UACC-257 > 100 µM

C=CC[C@@]1(C#N)C[C@H](C[C@]2(C#N)C[C@H](CCl)OC(C)(C)O2)OC(C)(C)O1
inactive: 786-0 > 100 µM | A498 > 100 µM | CAKI-1 > 100 µM | DMS-273 > 100 µM | HCC 2998 > 100 µM | HL-60 36 µM | HOP-62 > 100 µM | HOP-92 51.9 µM | HT-29 > 100 µM | KM12 > 100 µM | LOX IMVI > 100 µM | M14 > 100 µM | MOLT-4 72.8 µM | NCI-H226 38.4 µM | OVCAR-3 > 100 µM | OVCAR-5 > 100 µM | SF-539 > 100 µM | SNB-75 64.4 µM | U-251 > 100 µM | UACC-257 94.8 µM

CC(C)N(C(=O)C12C3C4C5C3C1(C(=O)N(C(C)C)C(C)C)C5(C#N)C42)C(C)C (stereo not given)
inactive: 786-0 > 100 µM | A498 > 100 µM | CAKI-1 > 100 µM | DMS-273 45.8 µM | HCC 2998 > 100 µM | HL-60 21.1 µM | HOP-62 > 100 µM | HOP-92 > 100 µM | HT-29 > 100 µM | KM12 > 100 µM | LOX IMVI 20.8 µM | M14 > 100 µM | MOLT-4 > 100 µM | NCI-H226 > 100 µM | OVCAR-3 > 100 µM | OVCAR-5 > 100 µM | SF-539 > 100 µM | SNB-75 > 100 µM | U-251 > 100 µM | UACC-257 > 100 µM
